Test results taken from US10562935B2, “Stapled peptides and uses thereof” (London Health Sciences Centre Research Inc., priority 2015, dated 2020).
Bridges are numbered along the chain shown (N, C = ends).

Legend:
[1] = Function blocking score: total percent inhibition over migration, invasion, inflammation and fibrosis assays divided by number of assays; format: cell-based; details: total percent inhibition for all assays tested divided by number of assays
[2] = test system: NF-κB; experiment: Inflammation assay: NF-κB inducible SEAP reporter in RAW-Blue macrophages stimulated with PAM3CSK4; format: cell-based, murine; details: for Inflammation (% Inhib.): % inhibition relative to positive control; for inhibition of inflammation (SEAP / NF-κB activity, in words): 10 ng/mL peptide with 200 ng/mL PAM3CSK4, 18 hours, compared to +PAM3
Method in brief: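 RAW-Blue murine RAW 264.7 macrophages carrying an NF-κB-inducible SEAP reporter were stimulated with 200 ng/mL PAM3CSK4 and given peptide at 10 ng/mL. After 18 h, supernatant SEAP was developed with QUANTI-BLUE for 20 min at 37 °C and read by absorbance at 630 nm. Values are mean and SDM of n=3.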

[3] = Direct HA-binding ELISA of biotinylated peptides on HA coated plates (Example 4); parameters: key to HA binding: absorbance (color) read at 450 nm; details: for HA binding: as repeated in tables 16, 18, 20; for HA direct binding (OD): optical density, summary tables 15, 17, 19
Method in brief: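 N-terminally biotinylated peptides (AEEA spacer) added to HA-coated wells at 0.8 or 0.08 μM, n=3, overnight at 4° C with shaking; biotin-labeled 7 kDa RHAMM as positive control. Bound peptide detected with streptavidin-HRP (1 hr, room temperature) and TMB substrate (5-10 min), absorbance at 450 nm.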

[4] = test system: IMR90 human fetal lung fibroblasts; experiment: Fibrosis assay: active TGF-β levels in TGF-β treated fibroblasts (ELISA); format: cell-based; details: % inhibition relative to positive control
Description: Compounds 132, 133, 135, 150, 152, 157-161, 265-269, 275, 277, and 278 were evaluated for their ability to inhibit fibrosis. IMR90 human fetal lung fibroblasts were obtained from ATCC and maintained in DMEM supplemented with 10% fetal bovine serum. In order to examine the effect of peptides on myofibroblast differentiation, 80% confluent cultures were serum starved overnight prior to addition of TGF-β (2 ng/mL, R&D Systems). Cells were treated with TGF-β for 24 hours prior to addition of peptides (10 ng/mL). 48 hours after addition of peptides, culture supernatants were collected and levels of active TGF-β measured using commercially available TGF-β ELISA (Quantikine, R&D Systems).
Values are the Mean and SDM n=3 replicates. *p<0.05, **p<0.01, ***p<0.001 when compared to the +TGFβ1 control. In FIG. 47, where bars are labeled with two compound numbers (“133/150” and “135/152”) this means that the data were pooled for the indicated compounds, i.e., for the non-acetylated and acetylated versions of the indicated peptides.

Row | Substance | Function blocking score (FBS) [1] | Inflammation (% Inhib.) [2] | HA binding [3] | HA direct binding (OD) [3] | Fibrosis (% inhib.) [4] | inhibition of inflammation (SEAP / NF-κB activity, in words) [2]
1 | Ac-(cyclo-11-15, cyclo-16-20)-KIKHVVKLKD[ENSQK][ESEVK]KLRSQLVKRIK-NH2 [Compound 267] | 0 | 0 % Inhib. | 0.01 | 0.01 OD | 0 % inhib. | 
2 | Ac-(cyclo-28-32)-NLKQKIKHVVKLKDENSQLKSEVSKLR[EQLVK]RKQN-NH2 (Ac-NLKQKIKHVVKLKDENSQLKSEVSKLREQLVKRKQN-NH2; lactam 28-32; SMILES CC[C@H](C)[C@H](NC(=O)[C@H](CCCCN)NC(=O)[C@H](CCC(N)=O)NC(=O)[C@H](CCCCN)NC(=O)[C@H](CC(C)C)NC(=O)[C@H](CC(N)=O)NC(C)=O)C(=O)N[C@@H](CCCCN)C(=O)N[C@@H](Cc1c[nH]cn1)C(=O)N[C@H](C(=O)N[C@H](C(=O)N[C@@H](CCCCN)C(=O)N[C@@H](CC(C)C)C(=O)N[C@@H](CCCCN)C(=O)N[C@@H](CC(=O)O)C(=O)N[C@@H](CCC(=O)O)C(=O)N[C@@H](CC(N)=O)C(=O)N[C@@H](CO)C(=O)N[C@@H](CCC(N)=O)C(=O)N[C@@H](CC(C)C)C(=O)N[C@@H](CCCCN)C(=O)N[C@@H](CO)C(=O)N[C@@H](CCC(=O)O)C(=O)N[C@H](C(=O)N[C@@H](CO)C(=O)N[C@@H](CCCCN)C(=O)N[C@@H](CC(C)C)C(=O)N[C@@H](CCCNC(=N)N)C(=O)N[C@H]1CCC(=O)NCCCC[C@@H](C(=O)N[C@@H](CCCNC(=N)N)C(=O)N[C@@H](CCCCN)C(=O)N[C@@H](CCC(N)=O)C(=O)N[C@@H](CC(N)=O)C(N)=O)NC(=O)[C@H](C(C)C)NC(=O)[C@H](CC(C)C)NC(=O)[C@H](CCC(N)=O)NC1=O)C(C)C)C(C)C)C(C)C) [Compound 277] | 29 | 8 % Inhib. | 0.12 | 0.12 OD | 52 % inhib. | significantly inhibited inflammation
3 | Ac-KIKHVVKLKDENSQLKSEVSKLRSQLVKRK-NH2 [Compound 265] | 28 | 18 % Inhib. | 0.10 | 0.10 OD | 0 % inhib. | significantly inhibited inflammation
4 | Ac-NLKQKIKHVVKLKDENSQLKSEVSKLRSQLVKRKQN-NH2 [Compound 275] | 12 | 0 % Inhib. | 0.11 | 0.11 OD | 0 % inhib. | 
5 | Ac-VSKLRSQLVKRKQN-NH2 [Compound 132] | 17 | 0 % Inhib. | 0.03 | 0.03 OD | 0 % inhib. | 
